# BindingDB's records for doi:10.1016/s0960-894x(01)00635-7 (Instituto De Química Médica (Csic), 2001)
# Assay: Effective concentration required to inhibit HIV-1 induced cytopathicity by 50% in CEM cells
row,EC50,SMILES
1,1.8 µM,"Cc1cn([C@@H]2O[C@H](CO[Si](C)(C)C(C)(C)C)[C@@H](O[Si](C)(C)C(C)(C)C)[C@H]2O)c(=O)n(CC(=O)O)c1=O [{3-[4-(tert-Butyl-dimethyl-silanyloxy)-5-(tert-butyl-dimethyl-silanyloxymethyl)-3-hydroxy-tetrahydro-furan-2-yl]-5-methyl-2,6-dioxo-3,6-dihydro-2H-pyrimidin-1-yl}-acetic acid]"

# Assay: The compound was evaluated for inhibition of HIV-1 mutant […] recombinant reverse transcriptase
row,SMILES,EC50
1,Cc1cn([C@@H]2O[C@H](CO[Si](C)(C)C(C)(C)C)[C@@H](O)[C@H]2O[Si](C)(C)C(C)(C)C)c(=O)n(CC(=O)O)c1=O,4.5 µM
2,Cc1cn([C@@H]2O[C@H](CO[Si](C)(C)C(C)(C)C)[C@@H](O[Si](C)(C)C(C)(C)C)[C@H]2O[Si](C)(C)C(C)(C)C)c(=O)n(CC(=O)OCc2ccccc2)c1=O,> 10 µM
3,Cc1cn([C@@H]2O[C@H](CO[Si](C)(C)C(C)(C)C)[C@@H](O[Si](C)(C)C(C)(C)C)[C@H]2O[Si](C)(C)C(C)(C)C)c(=O)n(CC(=O)O)c1=O,32 µM
4,Cc1cn([C@H]2C[C@H](O[Si](C)(C)C(C)(C)C)[C@@H](CO[Si](C)(C)C(C)(C)C)O2)c(=O)n(CC(=O)O)c1=O,5 µM
5,Cc1cn([C@@H]2O[C@H](CO)[C@@H](O)[C@H]2O[Si](C)(C)C(C)(C)C)c(=O)n(CC(=O)O)c1=O,20 µM
6,Cc1cn(C2CCC(CO[Si](C)(C)C(C)(C)C)O2)c(=O)n(CC(=O)OCc2ccccc2)c1=O (stereo unspecified),> 250 µM
7,Cc1cn([C@@H]2O[C@H](CO[Si](C)(C)C(C)(C)C)[C@@H](O[Si](C)(C)C(C)(C)C)[C@H]2O)c(=O)n(CC(=O)OCc2ccccc2)c1=O,> 50 µM
8,Cc1cn([C@@H]2O[C@H](CO)[C@@H](O)[C@H]2O[Si](C)(C)C(C)(C)C)c(=O)n(CC(=O)OCc2ccccc2)c1=O,4 µM
9,Cc1cn(C2O[C@H](CO[Si](C)(C)C(C)(C)C)[C@@H](O)[C@H]2O)c(=O)n(CC(=O)O)c1=O (stereo partly specified),117 µM
10,"Cc1cn(C2OC(CO[Si](C)(C)C(C)(C)C)CC2O[Si](C)(C)C(C)(C)C)c(=O)n(CC(=O)O)c1=O (stereo unspecified) [{3-[3-(tert-Butyl-dimethyl-silanyloxy)-5-(tert-butyl-dimethyl-silanyloxymethyl)-tetrahydro-furan-2-yl]-5-methyl-2,6-dioxo-3,6-dihydro-2H-pyrimidin-1-yl}-acetic acid]",4.5 µM
